Source: patent US6379649B1, “Imidazo(1,2-a)pyridines as peripheral benzodiazepine receptor binding agents” (Australian Nuclear Science & Technology Organisation, priority 1998, dated 2002)
pIC50: −log10 of the molar value. Read-outs that look alike come from different tables or passages of the source.

What was measured:
[1] = biological target: peripheral benzodiazepine receptor (Rattus norvegicus, UniProt P16257); assay: In vitro binding assay for peripheral benzodiazepine receptors ([^3H]-PK11195, rat kidney membranes); parameters: diluted kidney membrane preparation; from tissue; host or cells: rat kidney membranes (Sprague Dawley)
Method: In Vitro Binding Assays for Peripheral Benzodiazepine Receptors
Male Sprague Dawley rats are sacrificed by CO2 administration followed by cervical dislocation. Kidneys are removed and placed in 20 volumes of ice-cold buffer ([…] Tris-HCl, pH 7.4) and minced finely with scissors. After homogenising the preparation with a polytron (PCU Kintematica, Bioblock, Switzerland) with one 10-second burst at a setting of 10, the suspension is centrifuged at 49,000 g for 15 minutes at 4° C. The pellets are resuspended in the previous buffer with a dounce (manual homogeniser) to yield an appropriate protein concentration. Protein measurements are made by Lowry's method using bovine serum albumin as standard.
Non-specific binding is determined by blocking with cold PK11195 (10 μM). Incubation is terminated by rapid filtration through Whatman GF/B glass fiber. Each sample tube and filter is immediately washed with 3 aliquots of 5 mL ice-cold […] Tris/HCl at pH 7.4. Filters are counted with a β-scintillation counter (Packard) to measure the amount of bound radioactivity. Ki and IC50 are calculated by EBDA/Ligand, iterative non-linear least squares curve-fitting programs.

[2] = biological target: central benzodiazepine receptor; assay: In vitro binding assay for central benzodiazepine receptors ([^3H]-Ro 15-1788, rat cortex membranes); conditions: rat cortex membrane / rat brain homogenates, [^3H]-Ro 15-1788 2 nM, 25° C., 45 minutes; read-out: IC50 (nM) CBR
Method: In Vitro Binding Assays for Central Benzodiazepine Receptors
Male Sprague Dawley rats are sacrificed by CO2 administration followed by cervical dislocation. Cortex is removed and placed in 20 volumes of ice-cold buffer ([…] Tris-HCl, pH 7.4) and minced finely with scissors. After homogenising the preparation will a polytron (PCU Kinematica, Bioblock, Switzerland) with one 10-second burst at a setting of 6, the suspension is centrifuged at 20,000 g for 20 minutes at 4° C. The pellets are resuspended in the previous buffer with a dounce (manual homogeniser). After the second centrifugation, the pellet is suspended in a final buffer (50 nM Tris/HCl, 0.32M sucrose, pH 7.4) to yield an appropriate protein concentration. Protein measurements are made by Lowry's method using bovine serum albumin as standard.
Non-specific binding is determined by blocking with cold Flumazenil (20 μM). Incubation is terminated by rapid filtration through Whatman GF/B glass fiber. Each sample tube and filter is immediately washed with 3 aliquots of 5 mL ice-cold […] Tris/HCl at pH 7.4. Filters are counted with a β-scintillation counter (Packard) to measure the amount of bound radioactivity. Ki and IC50 are calculated by EBDA/Ligand, iterative non-linear least squares curve-fitting programs (G. A. McPherson, J. Pharmacol. Methods 14, 213-228 (1985)).

[3] = In vivo biodistribution of radiolabelled compounds in rats
From the text: In vivo biodistribution of radiolabelled compounds of the invention indicated high uptake in the tissues which have known PBR sites. Tables 2 to 4 show the biodistribution of the compounds of Examples 1-3, in which the iodine atom is radiolabelled, when administered to rats.

peripheral benzodiazepine receptor, sequence (P16257 whole entry): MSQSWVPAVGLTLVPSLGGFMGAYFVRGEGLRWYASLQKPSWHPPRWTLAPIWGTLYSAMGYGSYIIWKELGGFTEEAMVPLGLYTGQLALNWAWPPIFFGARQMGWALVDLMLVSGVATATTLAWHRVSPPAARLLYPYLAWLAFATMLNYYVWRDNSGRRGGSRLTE

## Cc1ccc2nc(-c3ccc(I)cc3)c(CC(=O)N(C)C)n2c1 [E, 6-methyl-2-(4′-iodophenyl)imidazo[1,2-a]pyridine-3-(N,N-dimethyl)acetamide, reference compound]
[1]
  pIC50: 6.75
[2]
  IC50: 155 nM

## CCN(CC)C(=O)Cc1c(-c2ccc(I)cc2)nc2ccc(Cl)cn12 [Example 3, 6-chloro-2-(4′-iodophenyl)-imidazo[1,2-a]pyridine-3-(N,N-diethyl)acetamide]
[1]
  pIC50: > 11.00
[2]
  IC50: > 1000 nM

## CCCCN(C)C(=O)Cc1c(-c2ccc(I)cc2)nc2ccc(Cl)cn12 [Example 6, 6chloro-2-(4′-iodophenyl)-imidazo[1,2-a]pyridine-3-(N-methyl, N-butyl)-acetamide]
[1]; rat kidney membrane, [^3H]-PK11195 2 nM, 4° C., 1 hour, read-out: IC50 (nM) PBR
  IC50: 266 nM
[2]
  IC50: > 1000 nM

## CCN(CC)C(=O)Cc1c(-c2ccc([123I])cc2)nc2ccc(Cl)cn12 [^123-I Example 3]
[3]; 5 Min
  Biodistribution (% ID/g organ) Adrenals: 2.11 ± 0.12 % ID/g organ
  Biodistribution (% ID/g organ) Blood: 0.46 ± 0.08 % ID/g organ
  Biodistribution (% ID/g organ) Brain: 0.33 ± 0.04 % ID/g organ
  Biodistribution (% ID/g organ) Heart: 2.63 ± 0.30 % ID/g organ
  Biodistribution (% ID/g organ) Kidney: 1.73 ± 0.38 % ID/g organ
  Biodistribution (% ID/g organ) Liver: 0.87 ± 0.13 % ID/g organ
  Biodistribution (% ID/g organ) Lungs: 13.16 ± 1.24 % ID/g organ
  Biodistribution (% ID/g organ) Olfactive bulbs: 0.44 ± 0.08 % ID/g organ
[3]; 15 Min
  Biodistribution (% ID/g organ) Adrenals: 2.03 ± 0.8 % ID/g organ
  Biodistribution (% ID/g organ) Blood: 0.16 ± 0.02 % ID/g organ
  Biodistribution (% ID/g organ) Brain: 0.2 ± 0.02 % ID/g organ
  Biodistribution (% ID/g organ) Heart: 2.39 ± 035 % ID/g organ
  Biodistribution (% ID/g organ) Kidney: 2.11 ± 0.31 % ID/g organ
  Biodistribution (% ID/g organ) Liver: 0.93 ± 0.06 % ID/g organ
  Biodistribution (% ID/g organ) Lungs: 6.98 ± 1.87 % ID/g organ
  Biodistribution (% ID/g organ) Olfactive bulbs: 0.31 ± 0.03 % ID/g organ
[3]; 24 Hrs
  Biodistribution (% ID/g organ) Adrenals: 4.56 ± 0.74 % ID/g organ
  Biodistribution (% ID/g organ) Blood: 0.02 ± 0.001 % ID/g organ
  Biodistribution (% ID/g organ) Brain: 0.01 ± 0.001 % ID/g organ
  Biodistribution (% ID/g organ) Heart: 0.39 ± 0.03 % ID/g organ
  Biodistribution (% ID/g organ) Kidney: 0.25 ± 0.03 % ID/g organ
  Biodistribution (% ID/g organ) Liver: 0.06 ± 0.001 % ID/g organ
  Biodistribution (% ID/g organ) Lungs: 0.31 ± 0.06 % ID/g organ
  Biodistribution (% ID/g organ) Olfactive bulbs: 0.09 ± 0.001 % ID/g organ
[3]; 30 Min
  Biodistribution (% ID/g organ) Adrenals: 2.42 ± 0.36 % ID/g organ
  Biodistribution (% ID/g organ) Blood: 0.12 ± 0.03 % ID/g organ
  Biodistribution (% ID/g organ) Brain: 0.15 ± 0.01 % ID/g organ
  Biodistribution (% ID/g organ) Heart: 2.44 ± 0.28 % ID/g organ
  Biodistribution (% ID/g organ) Kidney: 2.31 ± 0.02 % ID/g organ
  Biodistribution (% ID/g organ) Liver: 0.76 ± 0.01 % ID/g organ
  Biodistribution (% ID/g organ) Lungs: 4.91 ± 0.22 % ID/g organ
  Biodistribution (% ID/g organ) Olfactive bulbs: 0.26 ± 0.03 % ID/g organ
[3]; 48 Hrs
  Biodistribution (% ID/g organ) Adrenals: 4.87 ± 0.55 % ID/g organ
  Biodistribution (% ID/g organ) Blood: 0.01 ± 0.001 % ID/g organ
  Biodistribution (% ID/g organ) Brain: 0.01 ± 0.001 % ID/g organ
  Biodistribution (% ID/g organ) Heart: 0.17 ± 0.002 % ID/g organ
  Biodistribution (% ID/g organ) Kidney: 0.12 ± 0.01 % ID/g organ
  Biodistribution (% ID/g organ) Liver: 0.04 ± 0.001 % ID/g organ
  Biodistribution (% ID/g organ) Lungs: 0.17 ± 0.02 % ID/g organ
  Biodistribution (% ID/g organ) Olfactive bulbs: 0.07 ± 0.001 % ID/g organ
[3]; 60 Min
  Biodistribution (% ID/g organ) Adrenals: 2.83 ± 0.41 % ID/g organ
  Biodistribution (% ID/g organ) Blood: 0.06 ± 0.02 % ID/g organ
  Biodistribution (% ID/g organ) Brain: 0.08 ± 0.02 % ID/g organ
  Biodistribution (% ID/g organ) Heart: 2.65 ± 0.63 % ID/g organ
  Biodistribution (% ID/g organ) Kidney: 1.87 ± 0.66 % ID/g organ
  Biodistribution (% ID/g organ) Liver: 0.41 ± 0.14 % ID/g organ
  Biodistribution (% ID/g organ) Lungs: 2.76 ± 0.80 % ID/g organ
  Biodistribution (% ID/g organ) Olfactive bulbs: 0.2 ± 0.07 % ID/g organ
[3]; 180 Min
  Biodistribution (% ID/g organ) Adrenals: 4.1 ± 0.80 % ID/g organ
  Biodistribution (% ID/g organ) Blood: 0.04 ± 0.001 % ID/g organ
  Biodistribution (% ID/g organ) Brain: 0.05 ± 0.001 % ID/g organ
  Biodistribution (% ID/g organ) Heart: 2.59 ± 0.16 % ID/g organ
  Biodistribution (% ID/g organ) Kidney: 1.71 ± 0.17 % ID/g organ
  Biodistribution (% ID/g organ) Liver: 0.28 ± 0.02 % ID/g organ
  Biodistribution (% ID/g organ) Lungs: 1.63 ± 0.07 % ID/g organ
  Biodistribution (% ID/g organ) Olfactive bulbs: 0.16 ± 0.02 % ID/g organ
[3]; 240 Min
  Biodistribution (% ID/g organ) Adrenals: 4.32 ± 0.60 % ID/g organ
  Biodistribution (% ID/g organ) Blood: 0.05 ± 0.001 % ID/g organ
  Biodistribution (% ID/g organ) Brain: 0.05 ± 0.01 % ID/g organ
  Biodistribution (% ID/g organ) Heart: 2.49 ± 0.22 % ID/g organ
  Biodistribution (% ID/g organ) Kidney: 1.37 ± 0.18 % ID/g organ
  Biodistribution (% ID/g organ) Liver: 0.23 ± 0.03 % ID/g organ
  Biodistribution (% ID/g organ) Lungs: 1.38 ± 0.09 % ID/g organ
  Biodistribution (% ID/g organ) Olfactive bulbs: 0.18 ± 0.03 % ID/g organ
[3]; 360 Min
  Biodistribution (% ID/g organ) Adrenals: 5.28 ± 0.95 % ID/g organ
  Biodistribution (% ID/g organ) Blood: 0.04 ± 0.001 % ID/g organ
  Biodistribution (% ID/g organ) Brain: 0.05 ± 0.02 % ID/g organ
  Biodistribution (% ID/g organ) Heart: 2.13 ± 0.45 % ID/g organ
  Biodistribution (% ID/g organ) Kidney: 1.43 ± 0.25 % ID/g organ
  Biodistribution (% ID/g organ) Liver: 0.23 ± 0.02 % ID/g organ
  Biodistribution (% ID/g organ) Lungs: 1.21 ± 0.27 % ID/g organ
  Biodistribution (% ID/g organ) Olfactive bulbs: 0.16 ± 0.04 % ID/g organ
[3]; 480 Min
  Biodistribution (% ID/g organ) Adrenals: 4.22 ± 0.12 % ID/g organ
  Biodistribution (% ID/g organ) Blood: 0.03 ± 0.001 % ID/g organ
  Biodistribution (% ID/g organ) Brain: 0.03 ± 0.001 % ID/g organ
  Biodistribution (% ID/g organ) Heart: 1.48 ± 0.12 % ID/g organ
  Biodistribution (% ID/g organ) Kidney: 0.87 ± 0.15 % ID/g organ
  Biodistribution (% ID/g organ) Liver: 0.16 ± 0.01 % ID/g organ
  Biodistribution (% ID/g organ) Lungs: 0.75 ± 0.07 % ID/g organ
  Biodistribution (% ID/g organ) Olfactive bulbs: 0.16 ± 0.03 % ID/g organ
